Test results as given in patent US20090274577A1, “STE[…] TREATMENT WITH REDUCTANT AND OXIDANT” (priority 2008, published 2009).

Test system: Bacillus atrophaeus spores
Experiment: Filtering test: spores incubated in test solution, filtered, filter half treated with ozone, colonies counted
Format: cell-based
Description: Bacterial spores: Stainless steel discs with Bacillus atrophaeus spores (log 6, cat #1-6100ST, Raven Biological Laboratories).
An ozone generator provided ˜350 ppm O3, and a flow rate of ˜25 l/min, using setting No. 1.
Commercially available sterile single filters (pore size 0.45 μm) and an analytical test filter funnel from Nalgene was used (F-2161, Sigma-Aldrich). For suction, a Rietschle Thomas DTF 6 vacuum pump was used, with a flow rate of ˜6 m3/h, providing a vacuum of ˜150 mbar abs.
Filtering test: In filtering test experiments the spore solutions were prepared in a volume of 1 ml and processed. Thereto, after an incubation period of 5 min in the appropriate buffer at 40° C. using a rotary shaker, an aliquot of 250 μl of the suspension was transferred onto a sterile single use filters. The filter was washed two times with 10 ml of sterile water. The filter was retrieved under sterile conditions, and the filter was cut into halves using a sterile scissor. Only one half of the filter was treated with ozone, while the other half was kept as control, i.e. without ozone treatment. Finally, both halves were placed onto a TSA plate and incubated at 30° C. Initially Nutrient Agar plates were used, but later on a switch was made to TSA plates, in order to utilize the more pronounced reddish colour of Bacillus atrophaeus colonies which was facilitating analysis and documentation. […]

OC(CS)C(O)CS (racemic) [DTT, DL-dithiotreitol]
reduction of viability of Bacillus atrophaeus (liquid media comprising reductant, then sterile air with ~350 ppm ozone for 5 or 10 min): 3-5 logs
sterilizing/disinfecting/killing effect (in words) (test solution followed by ~350 ppm ozone, 5 or 10 min): improved
